Source: patent publication US9573954B2, “Pyrazolopyrimidine compounds” (University Health Network, priority 2012, dated 2017)
Like-named read-outs stand apart in the source and are kept apart here.

Assays:
[1] = tested on: colon cancer cells (HCT116); test: Cancer cell line growth inhibition, Sulforhodamine B assay, HCT116; assay type: cell-based; conditions: Homo sapiens, read-out: Cancer Cell Line GI50 Range HCT116
Outline: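 GI50 is calculated from growth inhibition relative to DMSO controls, using TCA-fixed, SRB-stained protein mass read at 570 nm. Compound, 10 nM–50 μM final in 10% FBS DMEM, was applied for 5 days to HCT116 cells that had been plated 24 h before at 1000–4000/well.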

[2] = tested on: breast cancer cells (MDA-MB-468); test: Cancer cell line growth inhibition, Sulforhodamine B assay, MDA-MB-468; assay type: cell-based; conditions: Homo sapiens, read-out: Cancer Cell Line GI50 Range MDA-MB-468
Outline: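 Sulforhodamine B staining (TCA-fixed, read at 570 nm) estimates cell mass after 5-day compound treatment of MDA-MB-468 cells, final concentrations 10 nM to 50 μM in 10% FBS DMEM. GI50 derived from growth inhibition versus DMSO controls.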

[3] = tested on: Colon 12 tumor initiating cells; test: Tumor-initiating cell growth inhibition, Alamar Blue assay, colon TICs; assay type: cell-based; conditions: 216 h, 9 days, read-out: Tumor Initiating Cell GI50 Range Colon 12
Text: (§1) Non-tissue or tissue cultured treated T-75 flask and 96-well plates were purchased from VWR. Vitamin B-27 supplement, MEM NEAA (minimum essential medium non essential amino acids), sodium pyruvate, L-glutamine, N2 supplement, penicillin-streptomycin and fungizone/amphotericin B were obtained from Invitrogen. Lipid mixture, heparin and EGF were purchased from Sigma; bFGF from BD Biosciences. Tumor Initiating Cells (TICs) from colon were routinely maintained using non-tissue cultured treated T-75 flasks in DMEM:F12 medium containing 0.2XB-27 supplement, 4 ug/ml heparin, 1×MEM NEAA, 1×sodium pyruvate, 1 mM glutamine, 10 pg/ul bFGF, 20 pg/ul EGF, 1× N2 supplement, lipid mixture, penicillin-streptomycin and fungizone/amphotericin B. Ovarian TICs were routinely maintained using tissue cultured treated T-75 flasks in DMEM:F12 medium containing IXB-27 supplement, 4 ug/ml heparin, 20 pg/ul bFGF, 20 pg/ul EGF and penicillin-streptomycin.
(§2) Compounds described herein were dissolved in DMSO and further diluted in cell culture medium for GI50 determination. Colon TICs were trypsinized and seeded into non-tissue cultured treated 96-well plates with 4,000 cells/well. After 24 h, compound was added into the cell culture at different concentrations, and the final concentration of DMSO was adjusted to 0.1%. Cells were then cultured at 37° C. for 9 days. Ovarian TICs were trypsinized and seeded into tissue cultured treated 96-well plates with 1,000 cells/well. After 24 h, compound was added into the cell culture at different concentrations, and the final concentration of DMSO was adjusted to 0.1%. Cells were then cultured at 37° C. for 6 days. Cell viability was assessed by Alamar Blue assay: 10 ul of Alamar Blue was added into each well. After 4 hours incubation at 37° C., fluorescence was recorded at excitation 544 and emission 590. GI50 (Growth inhibition) was calculated using GraphPad Prism 4.0 software.
(§3) In Table 1 below, GI50 value ranges for compound examples against TICs (Colon 12 and Ovarian 2393A) are given.

[4] = tested on: Ovarian 2393A tumor initiating cells; test: Tumor-initiating cell growth inhibition, Alamar Blue assay, ovarian TICs; assay type: cell-based; conditions: 144 h, 6 days, read-out: Tumor Initiating Cell GI50 Range Ovarian 2393A
Text: as §1, §2, §3

[5] = target: T1, human TTK (Homo sapiens, UniProt P33981); test: TTK inhibition assay (indirect ELISA); assay type: biochemical; conditions: read-out: TTK IC50 Range
T1 construct: Active TTK was purchased from Invitrogen as an amino terminal GST fusion of full length human TTK; purchased Invitrogen
T1 sequence (P33981 1-857): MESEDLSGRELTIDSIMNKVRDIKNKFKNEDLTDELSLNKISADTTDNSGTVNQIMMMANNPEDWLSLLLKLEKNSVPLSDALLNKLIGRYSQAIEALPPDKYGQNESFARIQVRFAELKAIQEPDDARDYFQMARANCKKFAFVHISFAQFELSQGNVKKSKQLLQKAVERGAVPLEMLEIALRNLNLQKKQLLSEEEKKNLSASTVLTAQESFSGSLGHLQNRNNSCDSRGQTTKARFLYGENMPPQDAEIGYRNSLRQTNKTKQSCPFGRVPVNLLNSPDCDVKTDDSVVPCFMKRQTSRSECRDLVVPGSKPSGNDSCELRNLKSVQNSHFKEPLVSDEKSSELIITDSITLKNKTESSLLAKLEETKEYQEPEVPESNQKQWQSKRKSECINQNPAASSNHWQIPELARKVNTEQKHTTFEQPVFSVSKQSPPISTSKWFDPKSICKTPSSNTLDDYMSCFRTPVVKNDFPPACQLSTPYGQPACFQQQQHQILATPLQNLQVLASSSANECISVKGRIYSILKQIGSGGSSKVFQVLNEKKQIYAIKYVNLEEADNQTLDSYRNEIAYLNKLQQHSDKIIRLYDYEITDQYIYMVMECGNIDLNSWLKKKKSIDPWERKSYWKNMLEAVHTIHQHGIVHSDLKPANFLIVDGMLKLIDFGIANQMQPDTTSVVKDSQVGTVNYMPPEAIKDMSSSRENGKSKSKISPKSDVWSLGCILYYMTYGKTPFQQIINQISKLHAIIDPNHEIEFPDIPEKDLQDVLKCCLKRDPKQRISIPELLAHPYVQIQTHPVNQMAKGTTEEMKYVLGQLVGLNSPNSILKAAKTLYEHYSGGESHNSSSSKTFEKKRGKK
Outline: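 Activity detected by indirect ELISA after compounds sat with full-length GST-TTK for 5 min prior to starting the reaction with ATP. IC50 came from a four-parameter logistic curve of % inhibition, calculated against background and uninhibited control wells.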

[6] = tested on: ovarian cancer cells (PA-1); test: Cancer cell line growth inhibition, Sulforhodamine B assay, PA-1; assay type: cell-based; conditions: 120 h; Table 1; PA-1, 5 days, SRB; read-out: Cancer Cell Line GI50 Range PA-1
Description: Breast cancer cells (MDA-MB-231 and MDA-MB-468), colon cancer cells (HCT116) and ovarian cancer cells (PA-1 and OVCAR-3) were seeded (1000 to 4000 in 80 μl per well depending on the cell growth rate) into 96 well plates 24 hours before compound overlay. Compounds were prepared as 10 mM stock solutions in 100% DMSO which were diluted with DMEM (Dulbecco's Modified Eagle's Medium) cell growth Medium (Invitrogen, Burlington, ON, Canada) containing 10% FBS (Fetal Bovine Serum) to concentrations ranging from 50 nM to 250 μM. Aliquots (20 μl) from each concentration were overlaid to 80 μl of the pre-seeded cells in the 96 well plates to make final concentrations of 10 nM to 50 μM. The cells were cultured for 5 days before the Sulforhodamine B assay (SRB) was performed to determine the compound's cell growth inhibition activity.
Sulforhodamine B (purchased from Sigma, Oakville, ON, Canada) is a water-soluble dye that binds to the basic amino acids of the cellular proteins. Thus, colorimetric measurement of the bound dye provides an estimate of the total protein mass that is related to the cell number. the cells are fixed in situ by gently aspirating off the culture media and adding 50 μl ice cold 10% Trichloroacetic Acid (TCA) per well and incubate at 4° C. for 30-60 min, The plates are washed with H2O five times and allowed to air dry for 5 min. Addition of 50 μl 0.4% (w/v) SRB solution in 1% (v/v) acetic acid to each well and incubation for 30 min at RT completes the staining reaction. Following staining, plates are washed four times with 1% acetic acid to remove unbound dye and then allowed to air dry for 5 min. The stain is solubilized with 100 μl of 10 mM Tris pH 10.5 per well. Absorbance is read at 570 nm.
The percentage (%) of relative growth inhibition was calculated by comparing to DMSO treated only cells (100%). GI50's were determined for compounds with cytotoxic activity. The GI50 was calculated using GraphPad PRISM software (GraphPad Software, Inc., San Diego, Calif., USA).
In Table 1 below, GI50 value ranges for compound examples against breast cancer cell lines (MDA-MB-468), colon cancer cell lines (HCT116) and ovarian cancer cell lines (PA-1) are given.
In Table 2 below, GI50 value ranges for compound examples against breast cancer cell lines (MDA-MB-231), colon cancer cell lines (HCT116) and ovarian cancer cell lines (PA-1) are given.

[7] = tested on: ovarian cancer cells (OVCAR-3); test: Cancer cell line growth inhibition, Sulforhodamine B assay, OVCAR-3; assay type: cell-based; conditions: Homo sapiens, OVCAR-3, OVCAR-3 ovarian cancer cell line; read-out: Cancer Cell Line GI50 Range OVCAR-3
Outline: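 OVCAR-3 cells were seeded 24 h before compound addition, then exposed for 5 days to final concentrations of 10 nM to 50 μM in DMEM with 10% FBS. Growth was measured by TCA fixation and sulforhodamine B staining with absorbance at 570 nm. Inhibition was relative to DMSO-only cells, and GI50 came from curve fitting.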

[8] = HCT-116, 120 h, Table 1, HCT116, 5 days, SRB
[9] = MDA-MB-468, 120 h, Table 1, MDA-MB-468, 5 days, SRB
[10] = Table 1, colon TICs, Alamar Blue
[11] = Table 1, ovarian TICs, Alamar Blue
[12] = HCT-116, HCT116 colon cancer cell line
[13] = MDA-MB-468, MDA-MB-468 breast cancer cell line

SMILES | GI50 [1, 8] | GI50 [2, 9] | GI50 [3, 10] | GI50 [4, 11] | IC50 ([5]; Table 1, 16 μM ATP (asterisk)) | GI50 [6] | GI50 [1, 12] | GI50 [2, 13] | GI50 ([3]; Colon 12 TICs) | GI50 [7] | GI50 ([4]; Ovarian 2393A TICs) | IC50 ([5]; 100 μM ATP)
Cc1cc(-c2cnn3c(NCC4CCOCC4)nc(NC4CCCC4)nc23)ccc1C(=O)NC1CC1 [Example A2, 4-(2-(Cyclopentylamino)-4-(((tetrahydro-2H-pyran-4-yl)methyl)amino)pyrazolo[1,5-a][1,3,5]triazin-8-yl)-N-cyclopropyl-2-methylbenzamide] | 100 to 500 nM | 100 to 500 nM | ≤ 100 nM | 100 to 500 nM | < 100 nM | ≤ 100 nM | – | – | – | – | – | –
Cc1cc(-c2cnn3c(NCC4CCOCC4)nc(Oc4ccccc4)nc23)ccc1C(=O)NC1CC1 [Example A3, N-cyclopropyl-2-methyl-4-(2-phenoxy-4-(((tetrahydro-2H-pyran-4-yl)methyl)amino)pyrazolo[1,5-a][1,3,5]triazin-8-yl)benzamide] | ≤ 100 nM | ≤ 100 nM | ≤ 100 nM | 100 to 500 nM | < 100 nM | ≤ 100 nM | – | – | – | – | – | –
O=C(NC1CC1)c1ccc(-c2cnn3c(NCC4CCOCC4)nc(Oc4ccccc4)nc23)cc1Cl [Example A4, 2-Chloro-N-cyclopropyl-4-(2-phenoxy-4-(((tetrahydro-2H-pyran-4-yl)methyl)amino)pyrazolo[1,5-a][1,3,5]triazin-8-yl)benzamide] | 100 to 500 nM | 100 to 500 nM | ≤ 100 nM | 100 to 500 nM | < 100 nM | 100 to 500 nM | – | – | – | – | – | –
O=C(NC1CC1)c1ccc(-c2cnn3c(NCCN4CCOCC4)nc(Oc4cccnc4)nc23)cc1 [Example A8, N-cyclopropyl-4-(4-((2-morpholinoethyl)amino)-2-(pyridin-3-yloxy)pyrazolo[1,5-a][1,3,5]triazin-8-yl)benzamide] | > 500 nM | > 500 nM | – | – | > 500 nM | > 500 nM | – | – | – | – | – | –
O=C(NC1CC1)c1ccc(-c2cnn3c(NCC4CCOCC4)nc(Oc4ccccc4)nc23)cc1 [Example A10, N-cyclopropyl-4-(2-phenoxy-4-(((tetrahydro-2H-pyran-4-yl)methyl)amino)pyrazolo[1,5-a][1,3,5]triazin-8-yl)benzamide] | 100 to 500 nM | > 500 nM | – | – | < 100 nM | 100 to 500 nM | – | – | – | – | – | –
O=C(NC1CC1)c1ccc(-c2cnn3c(NCC4CCOCC4)nc(OC4CCCC4)nc23)cc1 [Example A11, 4-(2-(cyclopentyloxy)-4-(((tetrahydro-2H-pyran-4-yl)methyl)amino)pyrazolo[1,5-a][1,3,5]triazin-8-yl)-N-cyclopropylbenzamide] | 100 to 500 nM | > 500 nM | – | – | < 100 nM | 100 to 500 nM | – | – | – | – | – | –
O=C(NC1CC1)c1ccc(-c2cnn3c(NCC4CCOCC4)nc(Oc4cccnc4)nc23)cc1 [Example A13, N-cyclopropyl-4-(2-(pyridin-3-yloxy)-4-(((tetrahydro-2H-pyran-4-yl)methyl)amino)-pyrazolo[1,5-a][1,3,5]triazin-8-yl)benzamide] | > 500 nM | > 500 nM | – | – | < 100 nM | 100 to 500 nM | – | – | – | – | – | –
Cc1cc(-c2cnn3c(NC[C@H]4CC[C@H](O)CC4)cc(Oc4cccnc4)nc23)ccc1C(=O)NC1CC1 [Example C177] | – | – | – | – | – | – | 100 to 500 nM | 100 to 500 nM | ≤ 100 nM | 100 to 500 nM | ≤ 100 nM | < 100 nM
Cc1cc(-c2cnn3c(NCCN4CCC(O)CC4)cc(Oc4cccc(F)c4)nc23)ccc1C(=O)NC1CC1 [Example C182] | – | – | – | – | – | – | ≤ 100 nM | ≤ 100 nM | ≤ 100 nM | ≤ 100 nM | ≤ 100 nM | < 100 nM
Cc1cc(-c2cnn3c(NCCN(C)C)cc(Oc4cccc(F)c4)nc23)ccc1C(=O)NC1CC1 [Example C187] | – | – | – | – | – | – | ≤ 100 nM | ≤ 100 nM | ≤ 100 nM | 100 to 500 nM | ≤ 100 nM | < 100 nM
